From patent US20200264182A1, “METHOD FOR DETECTING PROSTATE CANCER” (J-OIL MILLS, INC., priority 2017, published 2020)

Experiments:
[1] = FAC binding constant; conditions: at 25° C.
Procedure: (§1) Details of the FAC method are described in Patent Document 2 filed by some of the present applicants, for example.
(§2) Binding constants (at 25° C.) of PhoSL, SRL, NSL and LSL belonging to the fucose α1→6 specific lectin for various sugar chains are shown in Tables 2 to 5.

[2] = FAC binding constant (Table 5 entry); conditions: Table 5: sugar chain having no fucose; at 25° C.
Procedure: as §1, §2

[3] = sugar chain having fucose other than α1→6 fucose

Substance: LSL: fucose α1→6 specific lectin that can be extracted from Lepista sordida, SEQ ID No. 3
- Binding constant for sugar chain No. 728 ([1]; Table 3: sugar chain having fucose other than α1→6 fucose): <1000 M⁻¹
- Binding constant for sugar chain No. 419 [1, 3]: <1000 M⁻¹
- Binding constant for sugar chain No. 420 [1, 3]: <1000 M⁻¹
- Binding constant for sugar chain No. 718 [1, 3]: <1000 M⁻¹
- Binding constant for sugar chain No. 719 [1, 3]: <1000 M⁻¹
- Binding constant for sugar chain No. 720 [1, 3]: <1000 M⁻¹
- Binding constant for sugar chain No. 721 [1, 3]: <1000 M⁻¹
- Binding constant for sugar chain No. 722 [1, 3]: <1000 M⁻¹
- Binding constant for sugar chain No. 723 [1, 3]: <1000 M⁻¹
- Binding constant for sugar chain No. 726 [1, 3]: <1000 M⁻¹
- Binding constant for sugar chain No. 727 [1, 3]: <1000 M⁻¹
- Binding constant for sugar chain No. 729 [1, 3]: <1000 M⁻¹
- Binding constant for sugar chain No. 730 [1, 3]: <1000 M⁻¹
- Binding constant for sugar chain No. 731 [1, 3]: <1000 M⁻¹
- Binding constant for sugar chain No. 739 [1, 3]: <1000 M⁻¹
- Binding constant for sugar chain No. 909 [1, 3]: <1000 M⁻¹
- Binding constant for sugar chain No. 910 [1, 3]: <1000 M⁻¹
- Binding constant for sugar chain No. 931 [1, 3]: <1000 M⁻¹
- Binding constant for sugar chain No. 932 [1, 3]: <1000 M⁻¹
- Binding constant for sugar chain No. 933 [1, 3]: <1000 M⁻¹
- Binding constant for sugar chain No. 001 ([1]; sugar chain having no fucose): <1000 M⁻¹
- Binding constant for sugar chain No. 002 ([1]; sugar chain having no fucose): <1000 M⁻¹
- Binding constant for sugar chain No. 003 ([1]; sugar chain having no fucose): <1000 M⁻¹
- Binding constant for sugar chain No. 004 ([1]; sugar chain having no fucose): <1000 M⁻¹
- Binding constant for sugar chain No. 005 ([1]; sugar chain having no fucose): <1000 M⁻¹
- Binding constant for sugar chain No. 006 ([1]; sugar chain having no fucose): <1000 M⁻¹
- Binding constant for sugar chain No. 007 ([1]; sugar chain having no fucose): <1000 M⁻¹
- Binding constant for sugar chain No. 008 ([1]; sugar chain having no fucose): <1000 M⁻¹
- Binding constant for sugar chain No. 009 ([1]; sugar chain having no fucose): <1000 M⁻¹
- Binding constant for sugar chain No. 010 ([1]; sugar chain having no fucose): <1000 M⁻¹
- Binding constant for sugar chain No. 011 ([1]; sugar chain having no fucose): <1000 M⁻¹
- Binding constant for sugar chain No. 012 ([1]; sugar chain having no fucose): <1000 M⁻¹
- Binding constant for sugar chain No. 013 ([1]; sugar chain having no fucose): <1000 M⁻¹
- Binding constant for sugar chain No. 014 ([1]; sugar chain having no fucose): <1000 M⁻¹
- Binding constant for sugar chain No. 101 ([1]; sugar chain having no fucose): <1000 M⁻¹
- Binding constant for sugar chain No. 103 ([1]; sugar chain having no fucose): <1000 M⁻¹
- Binding constant for sugar chain No. 104 ([1]; sugar chain having no fucose): <1000 M⁻¹
- Binding constant for sugar chain No. 105 ([1]; sugar chain having no fucose): <1000 M⁻¹
- Binding constant for sugar chain No. 107 ([1]; sugar chain having no fucose): <1000 M⁻¹
- Binding constant for sugar chain No. 108 ([1]; sugar chain having no fucose): <1000 M⁻¹
- Binding constant for sugar chain No. 301 ([1]; sugar chain having no fucose): <1000 M⁻¹
- Binding constant for sugar chain No. 304 ([1]; sugar chain having no fucose): <1000 M⁻¹
- Binding constant for sugar chain No. 305 ([1]; sugar chain having no fucose): <1000 M⁻¹
- Binding constant for sugar chain No. 307 ([1]; sugar chain having no fucose): <1000 M⁻¹
- Binding constant for sugar chain No. 308 ([1]; sugar chain having no fucose): <1000 M⁻¹
- Binding constant for sugar chain No. 313 ([1]; sugar chain having no fucose): <1000 M⁻¹
- Binding constant for sugar chain No. 314 ([1]; sugar chain having no fucose): <1000 M⁻¹
- Binding constant for sugar chain No. 323 ([1]; sugar chain having no fucose): <1000 M⁻¹
- Binding constant for sugar chain No. 501 ([1]; sugar chain having no fucose): <1000 M⁻¹
- Binding constant for sugar chain No. 502 ([1]; sugar chain having no fucose): <1000 M⁻¹
- Binding constant for sugar chain No. 503 ([1]; sugar chain having no fucose): <1000 M⁻¹
- Binding constant for sugar chain No. 504 ([1]; sugar chain having no fucose): <1000 M⁻¹
- Binding constant for sugar chain No. 701 ([1]; sugar chain having no fucose): <1000 M⁻¹
- Binding constant for sugar chain No. 702 ([1]; sugar chain having no fucose): <1000 M⁻¹
- Binding constant for sugar chain No. 703 ([1]; sugar chain having no fucose): <1000 M⁻¹
- Binding constant for sugar chain No. 704 ([1]; sugar chain having no fucose): <1000 M⁻¹
- Binding constant for sugar chain No. 705 ([1]; sugar chain having no fucose): <1000 M⁻¹
- Binding constant for sugar chain No. 706 ([1]; sugar chain having no fucose): <1000 M⁻¹
- Binding constant for sugar chain No. 707 ([1]; sugar chain having no fucose): <1000 M⁻¹
- Binding constant for sugar chain No. 708 ([1]; sugar chain having no fucose): <1000 M⁻¹
- Binding constant for sugar chain No. 709 ([1]; sugar chain having no fucose): <1000 M⁻¹
- Binding constant for sugar chain No. 710 ([1]; sugar chain having no fucose): <1000 M⁻¹
- Binding constant for sugar chain No. 711 ([1]; sugar chain having no fucose): <1000 M⁻¹
- Binding constant for sugar chain No. 712 ([1]; sugar chain having no fucose): <1000 M⁻¹
- Binding constant for sugar chain No. 713 ([1]; sugar chain having no fucose): <1000 M⁻¹
- Binding constant for sugar chain No. 715 ([1]; sugar chain having no fucose): <1000 M⁻¹
- Binding constant for sugar chain No. 716 ([1]; sugar chain having no fucose): <1000 M⁻¹
- Binding constant for sugar chain No. 717 ([1]; sugar chain having no fucose): <1000 M⁻¹
- Binding constant for sugar chain No. 724 ([1]; sugar chain having no fucose): <1000 M⁻¹
- Binding constant for sugar chain No. 725 ([1]; sugar chain having no fucose): <1000 M⁻¹
- Binding constant for sugar chain No. 732 ([1]; sugar chain having no fucose): <1000 M⁻¹
- Binding constant for sugar chain No. 733 ([1]; sugar chain having no fucose): <1000 M⁻¹
- Binding constant for sugar chain No. 734 ([1]; sugar chain having no fucose): <1000 M⁻¹
- Binding constant for sugar chain No. 735 ([1]; sugar chain having no fucose): <1000 M⁻¹
- Binding constant for sugar chain No. 736 ([1]; sugar chain having no fucose): <1000 M⁻¹
- Binding constant for sugar chain No. 737 ([1]; sugar chain having no fucose): <1000 M⁻¹
- Binding constant for sugar chain No. 738 ([1]; sugar chain having no fucose): <1000 M⁻¹
- Binding constant for sugar chain No. 901 ([1]; sugar chain having no fucose): <1000 M⁻¹
- Binding constant for sugar chain No. 902 ([1]; sugar chain having no fucose): <1000 M⁻¹
- Binding constant for sugar chain No. 903 ([1]; sugar chain having no fucose): <1000 M⁻¹
- Binding constant for sugar chain No. 905 ([1]; sugar chain having no fucose): <1000 M⁻¹
- Binding constant for sugar chain No. 906 ([1]; sugar chain having no fucose): <1000 M⁻¹
- Binding constant for sugar chain No. 907 ([1]; sugar chain having no fucose): <1000 M⁻¹
- Binding constant for sugar chain No. 015 ([1]; sugar chain having α1→6 fucose): 190000 M⁻¹
- Binding constant for sugar chain No. 201 ([1]; sugar chain having α1→6 fucose): 230000 M⁻¹
- Binding constant for sugar chain No. 202 ([1]; sugar chain having α1→6 fucose): 230000 M⁻¹
- Binding constant for sugar chain No. 203 ([1]; sugar chain having α1→6 fucose): 200000 M⁻¹
- Binding constant for sugar chain No. 401 ([1]; sugar chain having α1→6 fucose): 350000 M⁻¹
- Binding constant for sugar chain No. 402 ([1]; sugar chain having α1→6 fucose): 200000 M⁻¹
- Binding constant for sugar chain No. 403 ([1]; sugar chain having α1→6 fucose): 340000 M⁻¹
- Binding constant for sugar chain No. 404 ([1]; sugar chain having α1→6 fucose): 390000 M⁻¹
- Binding constant for sugar chain No. 405 ([1]; sugar chain having α1→6 fucose): 320000 M⁻¹
- Binding constant for sugar chain No. 406 ([1]; sugar chain having α1→6 fucose): 220000 M⁻¹
- Binding constant for sugar chain No. 407 ([1]; sugar chain having α1→6 fucose): 280000 M⁻¹
- Binding constant for sugar chain No. 410 ([1]; sugar chain having α1→6 fucose): 220000 M⁻¹
- Binding constant for sugar chain No. 413 ([1]; sugar chain having α1→6 fucose): 280000 M⁻¹
- Binding constant for sugar chain No. 418 ([1]; sugar chain having α1→6 fucose): 220000 M⁻¹
- Binding constant for sugar chain No. 601 ([1]; sugar chain having α1→6 fucose): 240000 M⁻¹
- Binding constant for sugar chain No. 602 ([1]; sugar chain having α1→6 fucose): 120000 M⁻¹
- Binding constant for sugar chain No. 728 [2]: <1000 M⁻¹
